How the values were obtained:
[1] = tested on: Dd2 strain of P. falciparum; test: Activity against the Dd2 strain of P. falciparum (SYBR Green I, 72-h incubation); type: cell-based; settings: Plasmodium falciparum, DD2, 72 h, read-out: EC^50 Dd2
In short: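 SYBR Green I signal (ex 485, em 530 nm) measured growth, read after 24 h dark staining in saponin/Triton lysis buffer. Before that, compound-exposed Dd2 cultures (1% parasitemia, 1.0% hematocrit, 0.125% DMSO) grew 72 h at 37° C in low-oxygen gas. Background control: 20 μM mefloquine.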

P. falciparum HB3 = test: In vitro P. falciparum blood-stage assay, strain HB3; type: cell-based; settings: Plasmodium falciparum
Description: (§1) Strains of Plasmodium falciparum (Dd2, 3D7, D6, K1, NF54, V1/3, HB3, 7G8, FCB, TM90C2B) were obtained from Malaria Research and Reference Reagent Resource Center (MR4). P. falciparum isolates were maintained with O-positive human blood in an atmosphere of 93% N2, 4% CO2, 3% O2 at 37° C. in complete culturing medium (10.4 g/L RPMI 1640, 5.94 g/L HEPES, 5 g/L albumax II, 50 mg/L hypoxanthine, 2.1 g/L sodium bicarbonate, 10% human serum and 43 mg/L gentamicin). Parasites were cultured in medium until the parasitemia reached 3-8%. Parasitemia was determined by checking at least 500 red blood cells from a Giemsa-stained blood smear. For the compound screening, a parasite suspension at 2.0% parasitemia and 2.0% hematocrit was created with medium. 25 μl of medium was dispensed into 384-well, black, clear-bottom plates. 100 nl of compounds in DMSO was transferred into the assay plates along with control compound (mefloquine). Next, 25 μl of the parasite suspension in medium was dispensed into the assay plates such that the final parasitemia was 1% and the final hematocrit was 1%. The assay plates were incubated for 72 hours at 37° C. […] The assay plates were read with 505 dichroic mirrors with 485-nm excitation and 530-nm emission settings.

P. falciparum 7G8 = test: In vitro P. falciparum blood-stage assay, strain 7G8; type: cell-based; settings: Plasmodium falciparum
Description: as §1

P. falciparum FCB = test: In vitro P. falciparum blood-stage assay, strain FCB; type: cell-based; settings: Plasmodium falciparum
Description: as §1

[2] = tested on: P. berghei (ANKA GFP-luc) blood stage parasites; test: In vivo P. berghei blood-stage assay; design: species or system CD-1 mice; settings: 50 mg/kg 4x, p.o., T/E
Description: CD-1 mice (n=4 per experimental group; female; 6-7-week-old; 20-24 g) were inoculated with 1×10^6 P. berghei (ANKA GFP-luc) blood stage parasites intravenously 24 hours before treatment and compounds were administered orally (at 0 hour). Parasitemia was monitored by the In vivo Imaging System (IVIS 100, Xenogen; Caliper Life Sciences) to acquire the bioluminescence signal. In addition, blood smear samples were obtained from each mouse on day 4 after inoculation, stained with Giemsa, and viewed under a microscope for visual detection of blood parasitemia. Animals with parasitemia exceeding 20% were euthanized.

COc1ccc2c3c([nH]c2c1)[C@H](CO)N(C(C)=O)CC31CCN(C(=O)Nc2ccccc2F)CC1 [Compound 15, (R)-2′-acetyl-N-(2-fluorophenyl)-1′-(hydroxymethyl)-7′-methoxy-1′,2′,3′,9′-tetrahydrospiro [piperidine-4,4′-pyrido[3,4-b]indole]-1-carboxamide]
EC50 [1]: 0.015 to 0.178 µM | IC50 (P. falciparum HB3): 147 nM | IC50 (P. falciparum 7G8): 113 nM | IC50 (P. falciparum FCB): 130 nM | % Activity [2]: 94.20% | % of control [2]: 5.80% | Avg. Mouse survival [2]: 6.3 days | Mouse survival in days, M1 ([2]; mouse M1): 6 days | Parasitized RBC over 100, M1 ([2]; mouse M1): 3.70 | Mouse survival in days, M2 ([2]; mouse M2): 6 days | Parasitized RBC over 100, M2 ([2]; mouse M2): 3.20 | Mouse survival in days, M3 ([2]; mouse M3): 7 days | Parasitized RBC over 100, M3 ([2]; mouse M3): 2.80
